In brackets after ≈: the same amount, converted by molar mass.
Test system: M. catarrhalis A894
Test: Minimal inhibitory concentration (MIC), microdilution method in cation-adjusted Mueller-Hinton Broth (CLSI M7-A7)
Type: cell-based
Settings: strain A894; for MIC: Moraxella catarrhalis
Experimental: Minimal inhibitory concentrations (MICs; mg/1) were determined in cation-adjusted Mueller-Hinton Broth by a microdilution method following the description given in “Methods for Dilution Antimicrobial Susceptibility Tests for Bacteria that Grow Aerobically”, Approved standard, 7th ed., Clinical and Laboratory Standards Institute (CLSI) Document M7-A7, Wayne, Pa., USA, 2006.

Row | Molecule | MIC [µg/mL] | MIC for M. catarrhalis A894
1 | O=C1COc2ccc(N3C[C@@H](CCCN[C@@H]4Cn5c(=O)ccc6cccc4c65)OC3=O)nc2N1 [Example 74, (S)-1-{3-[(R)-2-oxo-3-(3-oxo-3,4-dihydro-2H-pyrido[3,2-b][1,4]oxazin-6-yl)-oxazolidin-5-yl]-propylamino}-1,2-dihydro-pyrrolo[3,2,1-ij]quinolin-4-one] | ≤ 0.031 | 
2 | O=C1CSc2ccc(N3C[C@@H](CCCN[C@@H]4CN5C(=O)CNc6cccc4c65)OC3=O)cc2N1 [Example 114, (S)-6-{3-[(R)-2-oxo-3-(3-oxo-3,4-dihydro-2H-benzo[1,4]thiazin-6-yl)-oxazolidin-5-yl]-propylamino}-1,2,5,6-tetrahydro-pyrrolo[1,2,3-de]quinoxalin-3-one] | ≤ 0.031 | 
3 | O=C1CSc2ccc(N3C[C@H](CCCN[C@H]4Cn5c(=O)ccc6ncc(F)c4c65)OC3=O)nc2N1 [Example 143, (R)-3-fluoro-4-{3-[(S)-2-oxo-3-(3-oxo-3,4-dihydro-2H-pyrido[3,2-b][1,4]thiazin-6-yl)-oxazolidin-5-yl]-propylamino}-4,5-dihydro-pyrrolo[3,2,1-de][1,5]naphthyridin-7-one] | ≤ 0.031 | 
4 | O=C1O[C@H](CNCCC2CN3C(=O)CCc4ccc(F)c2c43)CN1c1ccc2c(c1)OCCO2 (mixture of isomers) [Example 26, (1RS)-1-(2-{[(R)-3-(2,3-dihydro-benzo[1,4]dioxin-6-yl)-2-oxo-oxazolidin-5-ylmethyl]-amino}-ethyl)-9-fluoro-1,2,5,6-tetrahydro-pyrrolo[3,2,1-ij]quinolin-4-one] | 0.25 | 
5 | O=C1CSc2ccc(N3C[C@H](CCCN[C@@H]4Cn5c(=O)ccc6cccc4c65)OC3=O)nc2N1 [Example 136, (S)-1-{3-[(S)-2-oxo-3-(3-oxo-3,4-dihydro-2H-pyrido[3,2-b][1,4]thiazin-6-yl)-oxazolidin-5-yl]-propylamino}-1,2-dihydro-pyrrolo[3,2,1-ij]quinolin-4-one] | ≤ 0.031 | 
6 | O=C1COc2ccc(N3C[C@@H](CCCNC4Cn5c(=O)ccc6ccc(F)c4c65)OC3=O)nc2N1 (mixture of isomers) [Example 70, (RS)-9-fluoro-1-{3-[(R)-2-oxo-3-(3-oxo-3,4-dihydro-2H-pyrido[3,2-b][1,4]oxazin-6-yl)-oxazolidin-5-yl]-propylamino}-1,2-dihydro-pyrrolo[3,2,1-ij]quinolin-4-one] | ≤ 0.031 | 
7 | O=C1CSc2ccc(N3C[C@@H](CCNC[C@@H]4Cn5c(=O)ccc6nccc4c65)OC3=O)cc2N1 [Example 15, (4R)-4-({2-[(R)-2-oxo-3-(3-oxo-3,4-dihydro-2H-benzo[1,4]thiazin-6-yl)-oxazolidin-5-yl]-ethylamino}-methyl)-4,5-dihydro-pyrrolo[3,2,1-de][1,5]naphthyridin-7-one] | ≤ 0.031 | 
8 | O=C1CSc2ccc(N3C[C@@H](CCNCC4Cn5c(=O)ccc6ccc(F)c4c65)OC3=O)nc2N1 (mixture of isomers) [Example 197, (RS)-9-fluoro-1-({2-[(R)-2-oxo-3-(3-oxo-3,4-dihydro-2H-pyrido[3,2-b][1,4]thiazin-6-yl)-oxazolidin-5-yl]-ethylamino}-methyl)-1,2-dihydro-pyrrolo[3,2,1-ij]quinolin-4-one] | ≤ 0.031 | 
9 | O=C1CSc2ccc(N3C[C@@H](CCCNC4Cn5c(=O)cnc6cccc4c65)OC3=O)cc2N1 (mixture of isomers) [Example 20, (6RS)-6-{3-[(R)-2-oxo-3-(3-oxo-3,4-dihydro-2H-benzo[1,4]thiazin-6-yl)-oxazolidin-5-yl]-propylamino}-5,6-dihydro-pyrrolo[1,2,3-de]quinoxalin-3-one] | ≤ 0.031 | 
10 | CCOc1ccc(N2C[C@@H](CCNCC3Cn4c(=O)ccc5ccc(F)c3c54)OC2=O)cc1 (mixture of isomers) [Example 44, (RS)-1-({2-[(R)-3-(4-ethoxy-phenyl)-2-oxo-oxazolidin-5-yl]-ethylamino}-methyl)-9-fluoro-1,2-dihydro-pyrrolo[3,2,1-ij]quinolin-4-one] | 0.125 | 
11 | O=C1COc2ccc(N3C[C@H](CCN[C@H]4Cn5c(=O)ccc6cccc4c65)OC3=O)cc2N1 [Example 157, (R)-1-{2-[(S)-2-oxo-3-(3-oxo-3,4-dihydro-2H-benzo[1,4]oxazin-6-yl)-oxazolidin-5-yl]-ethylamino}-1,2-dihydro-pyrrolo[3,2,1-ij]quinolin-4-one] | 2 (≈ 4.48 µM) | 
12 | (1R,2R)-2-methoxymethyl-1-{3-[(R)-2-oxo-3-(3-oxo-3,4-dihydro-2H-benzo[1,4]thiazin-6-yl)-oxazolidin-5-yl]-propylamino}-1,2-dihydro-pyrrolo[3,2,1-ij]quinolin-4-one and (1S,2S)-2-methoxymethyl-1-{3-[(R)-2-oxo-3-(3-oxo-3,4-dihydro-2H-benzo[1,4]thiazin-6-yl)-oxazolidin-5-yl]-propylamino}-1,2-dihydro-pyrrolo[3,2,1-ij]quinolin-4-one [Example 165] |  | 0.125 µg/mL
13 | CCCc1ccc(N2C[C@@H](CNCC3Cn4c(=O)ccc5ccc(F)c3c54)OC2=O)cc1 (mixture of isomers) [Example 37, (RS)-9-fluoro-1-({[(R)-2-oxo-3-(4-propyl-phenyl)-oxazolidin-5-ylmethyl]-amino}-methyl)-1,2-dihydro-pyrrolo[3,2,1-ij]quinolin-4-one] | 1 | 
14 | O=C1CSc2ccc(N3C[C@H](CNCC4Cn5c(=O)ccc6ccc(F)c4c65)OC3=O)cc2N1 (mixture of isomers) [Example 30, (1RS)-9-fluoro-1-({[(S)-2-oxo-3-(3-oxo-3,4-dihydro-2H-benzo[1,4]thiazin-6-yl)-oxazolidin-5-ylmethyl]-amino}-methyl)-1,2-dihydro-pyrrolo[3,2,1-ij]quinolin-4-one] | 0.031 | 
15 | CCCc1ccc(N2C[C@@H](CCNCC3Cn4c(=O)ccc5ccc(F)c3c54)OC2=O)cc1 (mixture of isomers) [Example 45, (RS)-9-fluoro-1-({2-[(R)-2-oxo-3-(4-propyl-phenyl)-oxazolidin-5-yl]-ethylamino}-methyl)-1,2-dihydro-pyrrolo[3,2,1-ij]quinolin-4-one] | 0.063 | 
16 | O=C1COc2ccc(N3C[C@H](CCCN[C@H]4Cn5c(=O)ccc6ncc(F)c4c65)OC3=O)cc2N1 [Example 141, (R)-3-fluoro-4-{3-[(S)-2-oxo-3-(3-oxo-3,4-dihydro-2H-benzo[1,4]oxazin-6-yl)-oxazolidin-5-yl]-propylamino}-4,5-dihydro-pyrrolo[3,2,1-de][1,5]naphthyridin-7-one] | ≤ 0.031 | 
17 | O=C1COc2ccc(N3C[C@H](CCNCC4Cn5c(=O)ccc6ccc(F)c4c65)OC3=O)cc2N1 (mixture of isomers) [Example 1, (1RS)-9-fluoro-1-({2-[(S)-2-oxo-3-(3-oxo-3,4-dihydro-2H-benzo[1,4]oxazin-6-yl)-oxazolidin-5-yl]-ethylamino}-methyl)-1,2-dihydro-pyrrolo[3,2,1-ij]quinolin-4-one] | ≤ 0.031 | 
18 | O=C1CSc2ccc(N3C[C@@H](CCCN[C@H]4CN5C(=O)CNc6ccc(F)c4c65)OC3=O)nc2N1 [Example 171, (R)-7-fluoro-6-{3-[(R)-2-oxo-3-(3-oxo-3,4-dihydro-2H-pyrido[3,2-b][1,4]thiazin-6-yl)-oxazolidin-5-yl]-propylamino}-1,2,5,6-tetrahydro-pyrrolo[1,2,3-de]quinoxalin-3-one] | ≤ 0.031 | 
19 | C[C@H]1[C@H](NCCC[C@H]2CN(c3ccc4c(c3)NC(=O)CS4)C(=O)O2)c2c(F)ccc3ccc(=O)n1c23 (relative stereo) [Example 184, (1R*,2S*)-9-fluoro-2-methyl-1-{3-[(S)-2-oxo-3-(3-oxo-3,4-dihydro-2H-benzo[1,4]thiazin-6-yl)-oxazolidin-5-yl]-propylamino}-1,2-dihydro-pyrrolo[3,2,1-ij]quinolin-4-one] | ≤ 0.031 | 
20 | O=C1CSc2ccc(N3C[C@@H](CNCCC4Cn5c(=O)ccc6ncc(F)c4c65)OC3=O)cc2N1 (mixture of isomers) [Example 17, (4RS)-3-fluoro-4-(2-{[(R)-2-oxo-3-(3-oxo-3,4-dihydro-2H-benzo[1,4]thiazin-6-yl)-oxazolidin-5-ylmethyl]-amino}-ethyl)-4,5-dihydro-pyrrolo[3,2,1-de][1,5]naphthyridin-7-one] | ≤ 0.031 | 
21 | O=C1CSc2ccc(N3C[C@@H](CCCN[C@@H]4Cn5c(=O)ccc6ccc(F)c4c65)OC3=O)cc2N1 [Example 128, (S)-9-fluoro-1-{3-[(R)-2-oxo-3-(3-oxo-3,4-dihydro-2H-benzo[1,4]thiazin-6-yl)-oxazolidin-5-yl]-propylamino}-1,2-dihydro-pyrrolo[3,2,1-ij]quinolin-4-one] | ≤ 0.031 | 
22 | O=C1CSc2ccc(N3C[C@H](CCCN[C@@H]4Cn5c(=O)ccc6ccc(F)c4c65)OC3=O)nc2N1 [Example 191, (S)-9-fluoro-1-{3-[(S)-2-oxo-3-(3-oxo-3,4-dihydro-2H-pyrido[3,2-b][1,4]thiazin-6-yl)-oxazolidin-5-yl]-propylamino}-1,2-dihydro-pyrrolo[3,2,1-U]quinolin-4-one] |  | ≦0.031 mg/l
23 | COc1nc2ccc(F)c3c2n(c1=O)C[C@@H]3NCCC[C@@H]1CN(c2ccc3c(c2)NC(=O)CS3)C(=O)O1 [Example 112, (R)-7-fluoro-2-methoxy-6-{3-[(R)-2-oxo-3-(3-oxo-3,4-dihydro-2H-benzo[1,4]thiazin-6-yl)-oxazolidin-5-yl]-propylamino}-5,6-dihydro-pyrrolo[1,2,3-de]quinoxalin-3-one] | ≤ 0.031 | 
24 | O=C1COc2ccc(N3C[C@@H](CCNCC4Cn5c(=O)cnc6cccc4c65)OC3=O)cc2N1 (mixture of isomers) [Example 155, (RS)-6-({2-[(R)-2-oxo-3-(3-oxo-3,4-dihydro-2H-benzo[1,4]oxazin-6-yl)-oxazolidin-5-yl]-ethylamino}-methyl)-5,6-dihydro-pyrrolo[1,2,3-de]quinoxalin-3-one] | ≤ 0.031 | 
25 | O=C1CSc2ccc(N3C[C@@H](CCCNC4Cn5c(=O)ccc6ccc(Br)c4c65)OC3=O)cc2N1 (mixture of isomers) [Example 116, (RS)-9-bromo-1-{3-[(R)-2-oxo-3-(3-oxo-3,4-dihydro-2H-benzo[1,4]thiazin-6-yl)-oxazolidin-5-yl]-propylamino}-1,2-dihydro-pyrrolo[3,2,1-ij]quinolin-4-one] | ≤ 0.031 | 

— patent US9822114B2, “Tricyclic oxazolidinone antibiotic compounds” (Idorsia Pharmaceuticals Ltd, priority 2008, dated 2017)
